Measurements published in patent publication US20110003753A1, “COMPOSITIONS AND METHODS FOR DISRUPTING THE FUNCTION OF THE TRANSCRIPTIONAL REPRESSOR COMPONENT Sin3A-PAH2 DOMAIN TO INDUCE DIFFERENTIATION AND GROWTH INHIBITION IN BREAST CANCER” (SAMUEL WAXMAN CANCER RESEARCH FOUNDATION, priority 2009, published 2011).

How the values were obtained:
[1] = test system: Sin3B and MAD; assay: Mammalian two-hybrid assay, GAL4 DBD-Sin3B and VP16AD-MAD in 293T cells; type: cell-based; conditions: 15 μM peptide applied to the cell culture medium
Text: FIG. 2: SID decoy peptide blocks interactions between Sin3 PAH2 and MAD and interferes with recruitment of members of the Sin3 co-repressor complex. A. GST pull-down of MAD by the Sin3A PAH2 domain is blocked by SID peptide. Sin3A PAH2 domain (amino acids 306-450) was expressed in E. coli as a GST fusion and used in a pull down assay for in vitro interaction with 35S-methionine labeled MAD (left panel) or MAD immunoprecipitated from MDA-MB-231 cell lysates (right panel). 25% of input is shown for in vitro translated MAD and 10% of input for immunoprecipitated MAD (input). Assays were performed using 15 μM Tat-SID or Tat-SID^SCR peptide unless otherwise indicated. […] 293T cells were transfected with GAL4^uas×5-Tk-Luc reporter together with mammalian two-hybrid vectors expressing a fusion of Sin3B with GAL4 DNA binding domain (GAL4^DBD) and fusions of MAD and HDAC1 (columns 5-12 and 14-21, respectively) with VP16 activation domain (VP16^AD), as well as SID expression vectors, as indicated. […]
24 hours prior to transfection, 293T cells were plated at 50-60% confluence on 48-well plates. […] 48 hours post-transfection luciferase activity was measured using the Dual Luciferase assay system (Promega) on a Mithras LB940 plate reader (Berthold Technologies). […]

[2] = test system: MMTV-Myc mouse breast cancer cells; assay: Phenotypic (morphology) changes in culture; type: cell-based
Text: FIG. 1: Expression of a decoy peptide corresponding to MAD Sin3 interaction domain (SID) induces markers of differentiation and contact inhibition in MDA-MB-231 breast cancer cells. A. Schematic of the SID peptides and expression constructs used in this study. Shown in the upper panel are the design and sequence of the Tat-SID peptide and Tat-SID^SCR scrambled control. The Tat-SID peptide corresponds to amino acids 5-24 of MAD. This sequence binds Sin3 PAH2 with high affinity and has been previously used to study SID-PAH2 interactions in vitro. Peptides contain a leader sequence (YGRKKRRQGGG, SEQ ID No. 5) corresponding to the human immunodeficiency virus type 1 Tat arginine-rich RNA-binding motif (ARM), which has been mutated (RRR>GGG) to improve nuclear entry. B. Morphological changes induced by SID in MDA-MB-231 and MMTV-Myc. […] D. Confocal IF analyses showing the re-expression of membrane-associated E-cadherin induced by the expression of SID in MDA-MB-231 cells (top row) and MMTV-Myc cells (bottom row) E. Re-expression of nuclear RARβ in MDA-MB-231 cells detected by immunofluorescence microscopy. […]

[3] = test system: MDA-MB-231 cells; assay: Three-dimensional morphogenesis assay in Matrigel; type: cell-based, human; conditions: 5 μM peptide, Matrigel 3D culture
Description: FIG. 3: A. Morphogenesis in 3D cultures in Matrigel. MDA-MB-231 and MMTV-Myc cells expressing SID or the double mutant were cultured in 3D-Matrigel for 14 days. […] B. Reversion of the invasive phenotype of the MDA-MB-231 cells in Matrigel 3D cultures. Upper panel indicates change in numbers of invasive versus non invasive colonies (as indicated in crosshatched and non-crosshatched bars, respectively) in the presence of different concentrations (as indicated) of cell penetrating SID or SID^SCR (scrambled control) peptide. The colonies were counted after 10 days of treatment with a medium containing fresh peptide changed every 24 hours. […] The reduction in invasive phenotype was quantified by counting 5 low magnification fields per well done in triplicates (upper panel). The p value was calculated using the unpaired Student t test.
3D cultures of MDA-MB-231 and MMTV-Myc cells stably transfected with pEGFP-SID, pEGFP-SID2Mut or the parent vector pEGFP-N3 were prepared as described by Debnath et al. (Debnath et al2003). Briefly, […] of growth factor depleted Matrigel (BD Biosciences) was applied on 8-well multichamber slides (BD Biosciences) and incubated at 37° C. for 30 minutes. Once the Matrigel solidified 5×10^3 cells were seeded on top of the gels in assay medium containing 2% Matrigel and 20 ng/ml […]. Growth medium was changed daily for 14 days. Once colony formation was evident, the SID or the scramble control peptide was added to the MDA-MB-231 parental cells in the medium starting at day 3. The morphology of the colonies was determined by confocal microscopy. Induction of apoptosis was determined by staining colonies with activated caspase-3 antibody (BD Transduction Labs) and cell polarization by staining with anti-GM130 antibody (BD Transduction Labs). Cell nuclei were visualized by DAPI (Sigma) staining. […]

Sequence: YGRKKRRQGGGVRMNIQMLLEAADYLERRER [SID peptide]
- increase in luciferase activity compared to GAL4 DBD-Sin3B and VP16AD-MAD co-expression [1]: confirmed, albeit to a lesser degree
- phenotypic change of cell morphology [2]: cobblestone monolayers and well defined cell-cell contact accompanied by cell growth contact inhibition
- number and size of the colonies [3]: reduced
- decrease in number of colonies with invasive phenotype ([3]; colonies counted after 10 days of treatment): ~80%
